According to article PMC5856786, “A DHODH inhibitor increases p53 synthesis and enhances tumor cell killing by p53 degradation blockage” (Nature Communications, 2018):
Each block holds one compound with its values, some of them ahead of it.

How the values were obtained:
[1] = target: T1, CDK5/p35NCK (Homo sapiens, UniProt Q00535); assay: biochemical; parameters: radiometric 33PanQinase protein kinase activity assay, CDK/cyclin panel, per cent remaining activity; conditions: read-out: HZ00 10 µM Average (% remaining activity)
T1 construct: p35
T1 sequence (Q00535 whole entry): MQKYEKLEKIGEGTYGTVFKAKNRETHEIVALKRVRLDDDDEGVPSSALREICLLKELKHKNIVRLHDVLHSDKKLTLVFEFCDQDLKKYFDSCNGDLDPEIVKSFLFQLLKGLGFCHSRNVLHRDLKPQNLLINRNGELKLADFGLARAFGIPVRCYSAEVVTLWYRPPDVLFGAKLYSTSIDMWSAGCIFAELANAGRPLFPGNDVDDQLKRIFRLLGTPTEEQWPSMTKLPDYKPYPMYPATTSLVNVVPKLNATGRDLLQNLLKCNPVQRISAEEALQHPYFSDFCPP
T1 sequence (Q15078 whole entry partner): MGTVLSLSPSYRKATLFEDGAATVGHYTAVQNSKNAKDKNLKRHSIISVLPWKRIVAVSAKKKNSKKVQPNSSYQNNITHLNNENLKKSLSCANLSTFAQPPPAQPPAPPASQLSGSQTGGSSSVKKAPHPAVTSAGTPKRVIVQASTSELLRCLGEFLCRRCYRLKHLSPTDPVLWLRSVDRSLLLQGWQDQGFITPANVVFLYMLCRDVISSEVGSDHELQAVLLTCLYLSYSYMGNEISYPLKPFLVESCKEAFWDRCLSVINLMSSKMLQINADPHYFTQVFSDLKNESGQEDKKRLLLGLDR
Source text: (§1) Supplementary Table 1. In vitro inhibition (% remaining activity) of cyclin-dependent
(§2) ProQinase GmbH (Freiburg, Germany) using a radiometric protein kinase assay
(§3) (33PanQinase® Activity Assay).
(§4) (1 picture or pasted object on this page, not shown here) 32 Supplementary Table 1. In vitro inhibition (% remaining activity) of cyclin-dependent kinases (CDKs).

[2] = target: CDK1/CycB1 (Homo sapiens, UniProt P06493); assay: biochemical; parameters: radiometric 33PanQinase protein kinase activity assay, CDK/cyclin panel, per cent remaining activity; conditions: read-out: HZ00 10 µM Average (% remaining activity)
Sequence of CDK1/CycB1 (P06493 whole entry): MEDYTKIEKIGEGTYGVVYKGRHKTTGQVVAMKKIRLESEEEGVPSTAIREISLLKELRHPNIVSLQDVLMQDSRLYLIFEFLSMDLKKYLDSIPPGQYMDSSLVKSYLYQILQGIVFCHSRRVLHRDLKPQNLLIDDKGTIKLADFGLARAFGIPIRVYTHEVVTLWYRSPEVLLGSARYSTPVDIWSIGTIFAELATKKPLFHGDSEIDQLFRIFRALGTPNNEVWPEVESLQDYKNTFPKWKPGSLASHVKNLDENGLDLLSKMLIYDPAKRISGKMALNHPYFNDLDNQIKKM
Sequence of CDK1/CycB1 (P14635 whole entry partner): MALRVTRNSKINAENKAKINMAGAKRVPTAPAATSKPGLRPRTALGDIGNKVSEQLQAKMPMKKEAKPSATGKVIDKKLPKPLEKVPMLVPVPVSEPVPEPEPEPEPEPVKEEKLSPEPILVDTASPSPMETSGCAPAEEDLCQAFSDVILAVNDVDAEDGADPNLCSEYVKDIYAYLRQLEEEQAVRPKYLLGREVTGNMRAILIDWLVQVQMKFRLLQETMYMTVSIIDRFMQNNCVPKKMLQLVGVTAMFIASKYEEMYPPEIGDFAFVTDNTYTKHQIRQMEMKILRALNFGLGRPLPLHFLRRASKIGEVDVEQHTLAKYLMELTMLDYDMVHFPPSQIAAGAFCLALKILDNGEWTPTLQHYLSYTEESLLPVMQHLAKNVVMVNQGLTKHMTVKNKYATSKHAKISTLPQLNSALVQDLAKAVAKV
Source text: as §1, §2, §3, §4

[3] = target: CDK8/CycC (Homo sapiens, UniProt P49336); assay: biochemical; parameters: radiometric 33PanQinase protein kinase activity assay, CDK/cyclin panel, per cent remaining activity; conditions: read-out: HZ00 10 µM Average (% remaining activity)
Source text: as §1, §2, §3, §4

[4] = target: CDK3/CycE1 (Homo sapiens, UniProt Q00526); assay: biochemical; parameters: radiometric 33PanQinase protein kinase activity assay, CDK/cyclin panel, per cent remaining activity; conditions: read-out: HZ00 10 µM Average (% remaining activity)
Source text: as §1, §2, §3, §4

[5] = target: CDK6/CycD1 (Homo sapiens, UniProt Q00534); assay: biochemical; parameters: radiometric 33PanQinase protein kinase activity assay, CDK/cyclin panel, per cent remaining activity; conditions: read-out: HZ00 10 µM Average (% remaining activity)
Sequence of CDK6/CycD1 (Q00534 whole entry): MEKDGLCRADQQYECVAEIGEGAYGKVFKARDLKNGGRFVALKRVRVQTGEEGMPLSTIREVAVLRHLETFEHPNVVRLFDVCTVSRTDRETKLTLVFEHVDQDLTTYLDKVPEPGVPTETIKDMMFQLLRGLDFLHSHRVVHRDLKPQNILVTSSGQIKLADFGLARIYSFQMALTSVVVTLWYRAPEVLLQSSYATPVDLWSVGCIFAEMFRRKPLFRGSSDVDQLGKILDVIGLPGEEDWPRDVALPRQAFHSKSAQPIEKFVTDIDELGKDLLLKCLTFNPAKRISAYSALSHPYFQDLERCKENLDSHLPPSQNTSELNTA
Sequence of CDK6/CycD1 (P24385 whole entry partner): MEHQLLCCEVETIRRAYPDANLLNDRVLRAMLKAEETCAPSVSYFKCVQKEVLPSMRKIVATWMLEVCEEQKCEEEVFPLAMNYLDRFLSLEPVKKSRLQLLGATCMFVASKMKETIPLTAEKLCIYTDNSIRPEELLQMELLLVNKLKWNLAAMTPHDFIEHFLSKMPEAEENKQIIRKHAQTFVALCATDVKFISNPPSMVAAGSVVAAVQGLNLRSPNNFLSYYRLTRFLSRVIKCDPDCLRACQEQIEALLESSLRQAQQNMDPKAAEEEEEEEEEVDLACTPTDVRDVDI
Source text: as §1, §2, §3, §4

[6] = target: CDK4/CycD3 (Homo sapiens, UniProt P11802); assay: biochemical; parameters: radiometric 33PanQinase protein kinase activity assay, CDK/cyclin panel, per cent remaining activity; conditions: read-out: HZ00 10 µM Average (% remaining activity)
Source text: as §1, §2, §3, §4

[7] = target: CDK7/CycH/MAT1 (Homo sapiens, UniProt P50613); assay: biochemical; parameters: radiometric 33PanQinase protein kinase activity assay, CDK/cyclin panel, per cent remaining activity; conditions: read-out: HZ00 10 µM Average (% remaining activity)
Sequence of CDK7/CycH/MAT1 (P50613 whole entry): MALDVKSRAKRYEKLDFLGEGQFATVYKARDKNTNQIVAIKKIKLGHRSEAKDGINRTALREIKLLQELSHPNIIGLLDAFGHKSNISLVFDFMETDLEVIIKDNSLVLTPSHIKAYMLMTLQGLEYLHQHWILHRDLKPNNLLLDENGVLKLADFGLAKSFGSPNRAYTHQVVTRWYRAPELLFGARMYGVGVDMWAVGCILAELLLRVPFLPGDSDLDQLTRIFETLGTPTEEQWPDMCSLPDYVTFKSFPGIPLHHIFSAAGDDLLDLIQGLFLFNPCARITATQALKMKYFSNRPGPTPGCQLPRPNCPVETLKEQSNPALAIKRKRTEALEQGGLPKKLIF
Sequence of CDK7/CycH/MAT1 (P51946 whole entry partner): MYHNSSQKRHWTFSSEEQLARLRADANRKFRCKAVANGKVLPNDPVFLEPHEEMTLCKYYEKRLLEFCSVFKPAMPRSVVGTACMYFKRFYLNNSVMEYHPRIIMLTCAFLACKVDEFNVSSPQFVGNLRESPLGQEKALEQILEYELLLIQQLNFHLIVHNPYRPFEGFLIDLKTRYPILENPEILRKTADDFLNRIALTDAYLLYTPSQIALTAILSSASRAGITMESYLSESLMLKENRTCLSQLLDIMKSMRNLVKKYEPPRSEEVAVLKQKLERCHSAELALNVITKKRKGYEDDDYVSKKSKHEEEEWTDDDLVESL
Sequence of CDK7/CycH/MAT1 (P51948 whole entry partner): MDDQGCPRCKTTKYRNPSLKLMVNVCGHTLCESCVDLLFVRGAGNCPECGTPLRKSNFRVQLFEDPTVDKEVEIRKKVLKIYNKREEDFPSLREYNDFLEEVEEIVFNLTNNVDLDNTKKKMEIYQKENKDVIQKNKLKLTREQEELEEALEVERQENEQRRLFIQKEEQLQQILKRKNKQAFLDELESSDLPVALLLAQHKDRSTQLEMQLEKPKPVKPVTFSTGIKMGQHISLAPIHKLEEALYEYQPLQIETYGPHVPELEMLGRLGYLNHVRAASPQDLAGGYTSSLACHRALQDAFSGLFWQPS
Source text: as §1, §2, §3, §4

[8] = target: CDK1/CycA2 (Homo sapiens, UniProt P06493); assay: biochemical; parameters: radiometric 33PanQinase protein kinase activity assay, CDK/cyclin panel, per cent remaining activity; conditions: read-out: HZ00 10 µM Average (% remaining activity)
Sequence of CDK1/CycA2 (P06493 whole entry): as the sequence (P06493 whole entry) above
Sequence of CDK1/CycA2 (P20248 whole entry partner): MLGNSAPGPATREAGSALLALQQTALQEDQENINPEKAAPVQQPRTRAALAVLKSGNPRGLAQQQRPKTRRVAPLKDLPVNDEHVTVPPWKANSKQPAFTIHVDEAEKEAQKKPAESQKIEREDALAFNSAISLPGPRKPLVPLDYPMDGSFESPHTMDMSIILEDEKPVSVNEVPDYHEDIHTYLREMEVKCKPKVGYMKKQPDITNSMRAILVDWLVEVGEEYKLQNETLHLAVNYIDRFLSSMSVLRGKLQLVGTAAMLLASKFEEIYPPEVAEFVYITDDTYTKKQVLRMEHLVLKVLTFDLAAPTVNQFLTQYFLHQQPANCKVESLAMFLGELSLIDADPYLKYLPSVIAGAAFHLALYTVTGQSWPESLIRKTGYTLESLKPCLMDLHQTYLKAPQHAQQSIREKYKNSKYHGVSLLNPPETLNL
Source text: as §1, §2, §3, §4

[9] = target: CDK9/CycK (Homo sapiens, UniProt P50750); assay: biochemical; parameters: radiometric 33PanQinase protein kinase activity assay, CDK/cyclin panel, per cent remaining activity; conditions: read-out: HZ00 10 µM Average (% remaining activity)
Source text: as §1, §2, §3, §4

[10] = target: CDK1/CycE1 (Homo sapiens, UniProt P06493); assay: biochemical; parameters: radiometric 33PanQinase protein kinase activity assay, CDK/cyclin panel, per cent remaining activity; conditions: read-out: HZ00 10 µM Average (% remaining activity)
Sequence of CDK1/CycE1 (P06493 whole entry): as the sequence (P06493 whole entry) above
Sequence of CDK1/CycE1 (P24864 whole entry partner): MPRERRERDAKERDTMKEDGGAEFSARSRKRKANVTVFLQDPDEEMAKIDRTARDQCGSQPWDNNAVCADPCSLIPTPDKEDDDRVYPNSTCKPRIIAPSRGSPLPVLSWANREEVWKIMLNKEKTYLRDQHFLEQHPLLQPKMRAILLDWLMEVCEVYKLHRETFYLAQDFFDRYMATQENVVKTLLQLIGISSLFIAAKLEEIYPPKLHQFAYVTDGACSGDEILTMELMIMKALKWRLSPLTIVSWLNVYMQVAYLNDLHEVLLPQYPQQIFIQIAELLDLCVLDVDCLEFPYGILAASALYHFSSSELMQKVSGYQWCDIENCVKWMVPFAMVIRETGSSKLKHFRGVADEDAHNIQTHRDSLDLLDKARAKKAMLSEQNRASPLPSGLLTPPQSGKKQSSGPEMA
Source text: as §1, §2, §3, §4

[11] = target: CDK2/CycA2 (Homo sapiens, UniProt P24941); assay: biochemical; parameters: radiometric 33PanQinase protein kinase activity assay, CDK/cyclin panel, per cent remaining activity; conditions: read-out: HZ00 10 µM Average (% remaining activity)
Source text: as §1, §2, §3, §4

[12] = target: T2, PCTAIRE1/CycY (Homo sapiens, UniProt Q00536); assay: biochemical; parameters: radiometric 33PanQinase protein kinase activity assay, CDK/cyclin panel, per cent remaining activity; conditions: read-out: HZ00 10 µM Average (% remaining activity)
T2 construct: gene CDK16
Source text: as §1, §2, §3, §4

[13] = target: T3, CDK5/p25NCK (Homo sapiens, UniProt Q00535); assay: biochemical; parameters: radiometric 33PanQinase protein kinase activity assay, CDK/cyclin panel, per cent remaining activity; conditions: read-out: HZ00 10 µM Average (% remaining activity)
T3 construct: p25
T3 sequence (Q00535 whole entry): as the sequence (Q00535 whole entry) above
T3 sequence (Q15078 whole entry partner): as the sequence (Q15078 whole entry partner) above
Source text: as §1, §2, §3, §4

[14] = target: CDK2/CycE1 (Homo sapiens, UniProt P24941); assay: biochemical; parameters: radiometric 33PanQinase protein kinase activity assay, CDK/cyclin panel, per cent remaining activity; conditions: read-out: HZ00 10 µM Average (% remaining activity)
Source text: as §1, §2, §3, §4

[15] = target: CDK4/CycD1 (Homo sapiens, UniProt P11802); assay: biochemical; parameters: radiometric 33PanQinase protein kinase activity assay, CDK/cyclin panel, per cent remaining activity; conditions: read-out: HZ00 10 µM Average (% remaining activity)
Source text: as §1, §2, §3, §4

[16] = test system: protein kinases; assay: Radioactive filter-binding assays, panel of 140 kinases (Supplementary Table 2); type: biochemical
Protocol: Supplementary Table 2. In vitro inhibition (% remaining activity) of protein
free assays. Screening was performed by the International Centre for Kinase Profiling
(Dundee, UK) using radioactive ( P-ATP) filter-binding assays.
(1 picture or pasted object on this page, not shown here)

[17] = test system: p53-induced mRNAs in ARN8 cells; assay: q-RT-PCR of p53-induced mRNAs and p53 mRNA; type: cell-based, human
Protocol: Supplementary Figure 1. HZ compounds increase the levels of p53-induced mRNAs. a) p53-null H1299 cells were transfected with the RGCΔ FosLacZ reporter construct and levels of p53-dependent transcription were determined by CPRG assay following a 16 h exposure to HZ00. A vector expressing wild-type p53 was used as a positive control. The average of three […]
for 1 hour prior to treatment with 2 µM nutlin-3 for an additional 18 hours. Levels of p53-induced mRNAs and p53 mRNA were determined by q-RT-PCR. tbp was used as a control.
Values correspond to the average of three technical repeats with standard deviation used for error. RNA extraction and q-RT-PCR were performed as previously described - see supplementary information7. c) HCT116 p53 wild-type or p53 deficient cells were treated […]
supplementary information for cell line description8. d) ARN8 cells treated for 6 hours with HZ00 at indicated doses. Levels of p53 mRNA were determined by q-RT-PCR. […]

[18] = test system: p53-dependent transcription in ARN8 human melanoma cells; assay: p53-dependent transcription reporter (CPRG assay) in ARN8 cells; type: cell-based; conditions: cultured cells; authors' response in peer review file
Protocol: A 20,000 compound library was purchased from ChemBridge consisting of 10,000 from the DIVERSet and 10,000 from the CombiSet libraries. […] A total of 30,000 additional compounds from the ChemBridge DIVERSet that were previously screened in a T22 cell background[12] were re-screened in ARN8 cells at 5 µM. The ChemBridge codes for these compounds can be made available upon request. All chemical synthesis is detailed in Supplementary Information with NMR spectra and reaction schemes detailed in Supplementary Figs. 13–19.

[19] = test system: U2OS cells; assay: PI flow cytometry, sub-G1 cells, U2OS; type: cell-based
Protocol: Cell cycle distribution analysis was performed on a Becton Dickinson FACScan flow cytometer or FACSCalibur (BD Biosciences) following staining with propidium iodide (PI) or dual labeling with BrdU and PI[36]. These assays were analyzed using CellQuest Pro (BD Biosciences).

remaining activity at 10 µM [1]: 105%
remaining activity at 10 µM [2]: 104%
remaining activity at 10 µM [3]: 95.2%
remaining activity at 10 µM [4]: 96.6%
remaining activity at 10 µM [5]: 103%
remaining activity at 10 µM [6]: 89.2%
remaining activity at 10 µM [7]: 96.2%
remaining activity at 10 µM [8]: 89.1%
remaining activity at 10 µM [9]: 100%
remaining activity at 10 µM [10]: 101%
remaining activity at 10 µM [11]: 96%
remaining activity at 10 µM [12]: 103%
remaining activity at 10 µM [13]: 104%
remaining activity at 10 µM [14]: 102%
remaining activity at 10 µM [15]: 104%
inhibition of protein kinases [16]: did not detect inhibition
Structure (SMILES): O=C(NC1CCCc2c1cnn2-c1ccccc1F)c1ccccn1 (stereo not shown) [HZ00]
mRNA of p53 target genes [17]: raised the mRNA of p53 target genes

Structure (SMILES): O=C(NC1CCCc2c1cnn2-c1ccccc1F)c1onc2c1CCCC2 (stereo not shown) [HZ05]
concentration activating p53-dependent transcription [18]: below 40 nM
sub-G1 cells ([19]; HZ05 1 μM 72 h + 48 h, 2 μM nutlin-3a last 48 h): 38.2%
sub-G1 cells ([19]; HZ05 1 μM 72 h + 48 h, DMSO last 48 h): 25.7%
sub-G1 cells ([19]; HZ05 1 μM, 72 h treatment): 3.7%
sub-G1 cells ([19]; HZ05 2.5 μM, 72 h treatment): 4.8%
